Values quoted from earlier work, collected in patent US7973075B2, “Kainate receptor-selective epimeric analogs of dysiherbaine” (priority 2007, dated 2011).

Key:
mice = settings: i.c.v. injection, mice; Shoji et al., 2006; cited from earlier work
GluR5 = biological target: T1, GluR5 (Rattus norvegicus, UniProt P22756); settings: Tables 1-2; comparison values of neoDH and MSVIII-19 (Sanders et al., 2005); read-out: GluR5 binding affinity (displacement of [3H]kainate); cited from earlier work
T1 construct: expressed in transfected cells; HEK 293 (patch clamp)
T1 sequence (P22756 with tags, fused parts or gaps isoform P22756-2): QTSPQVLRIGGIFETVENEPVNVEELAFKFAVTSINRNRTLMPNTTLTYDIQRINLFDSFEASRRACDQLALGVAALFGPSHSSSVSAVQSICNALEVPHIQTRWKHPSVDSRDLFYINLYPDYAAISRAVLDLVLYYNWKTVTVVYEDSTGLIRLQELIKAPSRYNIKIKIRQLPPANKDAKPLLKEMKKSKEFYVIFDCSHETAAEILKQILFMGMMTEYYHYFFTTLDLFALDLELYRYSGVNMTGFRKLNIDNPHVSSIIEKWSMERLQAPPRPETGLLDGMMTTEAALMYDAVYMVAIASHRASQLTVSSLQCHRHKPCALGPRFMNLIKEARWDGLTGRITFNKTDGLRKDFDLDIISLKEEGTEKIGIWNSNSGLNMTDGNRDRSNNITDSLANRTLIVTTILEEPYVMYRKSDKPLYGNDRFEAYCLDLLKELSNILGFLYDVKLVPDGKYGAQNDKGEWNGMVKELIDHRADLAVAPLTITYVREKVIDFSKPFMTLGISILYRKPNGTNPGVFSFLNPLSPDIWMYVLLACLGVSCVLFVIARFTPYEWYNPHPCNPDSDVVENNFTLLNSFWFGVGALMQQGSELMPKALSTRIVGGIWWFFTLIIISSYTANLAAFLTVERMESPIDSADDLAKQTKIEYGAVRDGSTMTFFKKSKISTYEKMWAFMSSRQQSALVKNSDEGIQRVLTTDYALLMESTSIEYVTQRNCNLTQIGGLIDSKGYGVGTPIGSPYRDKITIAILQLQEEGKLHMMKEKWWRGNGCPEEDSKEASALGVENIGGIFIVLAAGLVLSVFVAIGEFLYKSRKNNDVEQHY

GluR6 = biological target: T2, GluR6 (Rattus norvegicus, UniProt P42260); settings: Tables 1-2; comparison value of neoDH (Sanders et al., 2005); read-out: GluR6 binding affinity (displacement of [3H]kainate); cited from earlier work
T2 construct: expressed in transfected cells; HEK 293 (patch clamp)
T2 sequence (P42260 32-908): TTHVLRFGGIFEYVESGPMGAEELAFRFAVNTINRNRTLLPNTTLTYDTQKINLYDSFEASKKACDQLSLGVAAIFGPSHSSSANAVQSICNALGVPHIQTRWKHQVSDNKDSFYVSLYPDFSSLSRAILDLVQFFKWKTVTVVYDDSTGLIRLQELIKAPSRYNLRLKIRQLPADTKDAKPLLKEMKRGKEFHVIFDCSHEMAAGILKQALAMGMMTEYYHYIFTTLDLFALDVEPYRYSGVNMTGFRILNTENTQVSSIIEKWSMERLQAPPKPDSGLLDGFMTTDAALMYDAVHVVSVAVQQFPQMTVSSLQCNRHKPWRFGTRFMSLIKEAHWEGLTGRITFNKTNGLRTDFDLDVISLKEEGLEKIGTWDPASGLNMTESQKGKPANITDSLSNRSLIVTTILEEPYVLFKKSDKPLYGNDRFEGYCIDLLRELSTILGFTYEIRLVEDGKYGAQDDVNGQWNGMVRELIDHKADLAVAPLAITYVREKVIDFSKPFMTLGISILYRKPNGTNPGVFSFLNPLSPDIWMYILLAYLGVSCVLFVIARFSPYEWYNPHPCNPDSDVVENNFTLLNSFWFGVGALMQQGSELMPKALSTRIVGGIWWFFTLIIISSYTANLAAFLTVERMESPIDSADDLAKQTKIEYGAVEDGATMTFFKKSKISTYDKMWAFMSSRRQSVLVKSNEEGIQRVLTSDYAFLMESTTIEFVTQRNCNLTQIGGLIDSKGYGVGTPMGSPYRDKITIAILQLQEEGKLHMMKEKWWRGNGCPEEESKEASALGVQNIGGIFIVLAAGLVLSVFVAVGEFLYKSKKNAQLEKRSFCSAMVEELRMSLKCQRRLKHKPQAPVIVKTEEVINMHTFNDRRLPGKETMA

GluR5-2a = biological target: T3, GluR5-2a (Rattus norvegicus, UniProt P22756, DEL402-416); settings: Sanders et al., 2005; cited from earlier work
T3 construct: expressed in transfected cells; host or cells: HEK-293-T/17
T3 sequence (P22756 with tags, fused parts or gaps isoform P22756-2 limits assumed, stated change not applied): as the sequence (P22756 with tags, fused parts or gaps isoform P22756-2) above

KA2 [1] = biological target: T4, KA2 (Rattus norvegicus, UniProt Q63273); settings: Sanders et al., 2005; cited from earlier work
T4 construct: expressed in transfected cells; host or cells: HEK-293-T/17
T4 sequence (Q63273 15-979): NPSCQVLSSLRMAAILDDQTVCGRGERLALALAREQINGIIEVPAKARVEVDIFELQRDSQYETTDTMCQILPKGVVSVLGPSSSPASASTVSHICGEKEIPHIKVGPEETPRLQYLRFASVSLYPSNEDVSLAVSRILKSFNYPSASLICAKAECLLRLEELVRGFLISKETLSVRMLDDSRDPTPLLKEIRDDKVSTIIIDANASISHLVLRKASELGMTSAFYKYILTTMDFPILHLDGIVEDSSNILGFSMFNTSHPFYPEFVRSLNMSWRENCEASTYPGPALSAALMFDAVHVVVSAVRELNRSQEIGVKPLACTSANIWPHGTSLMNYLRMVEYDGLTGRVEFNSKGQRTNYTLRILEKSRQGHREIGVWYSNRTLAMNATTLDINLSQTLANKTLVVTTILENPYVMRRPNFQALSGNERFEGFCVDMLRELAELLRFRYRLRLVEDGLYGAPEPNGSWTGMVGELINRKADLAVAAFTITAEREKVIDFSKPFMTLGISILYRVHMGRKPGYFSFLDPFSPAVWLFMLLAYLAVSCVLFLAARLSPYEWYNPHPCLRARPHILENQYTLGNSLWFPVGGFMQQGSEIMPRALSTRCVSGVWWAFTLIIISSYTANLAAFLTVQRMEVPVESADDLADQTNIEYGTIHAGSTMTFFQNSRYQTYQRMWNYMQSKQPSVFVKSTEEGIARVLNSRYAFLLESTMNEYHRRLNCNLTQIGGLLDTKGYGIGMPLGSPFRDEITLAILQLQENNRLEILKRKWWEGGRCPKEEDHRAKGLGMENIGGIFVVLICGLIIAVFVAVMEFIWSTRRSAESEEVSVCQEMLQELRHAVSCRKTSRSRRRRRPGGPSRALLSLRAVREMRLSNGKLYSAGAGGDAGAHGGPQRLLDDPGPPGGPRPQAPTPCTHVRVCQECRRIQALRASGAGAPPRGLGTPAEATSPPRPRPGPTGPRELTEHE

KA2 [2] = biological target: T4, KA2; settings: Tables 1-2; comparison values of neoDH and MSVIII-19 (Sanders et al., 2005); cited from earlier work

SMILES | ED50 seizure activity (mice) [pmol/mouse] | Ki (GluR5) [nM] | Ki (GluR6) [nM] | Ki (GluR5-2a) [nM] | Ki KA2 (KA2 [1]) [nM] | KA2 binding affinity (displacement of [3H]kainate) (KA2 [2]) [µM]
CN[C@H]1[C@H]2O[C@@](C[C@H](N)C(=O)O)(C(=O)O)C[C@H]2OC[C@H]1O [DH, Dysiherbaine] | 13 |  |  |  |  | 
N[C@@H](C[C@]1(C(=O)O)C[C@H]2OC[C@@H](O)[C@@H](O)[C@H]2O1)C(=O)O [neodysiherbaine, Neodysiherbaine] | 16 | 7.7 | 33 | 7.7 | 600 | 0.6
